Measurements: ChEMBL document CHEMBL1201862, “PubChem BioAssay data set” (2004)
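How tested: cells in 96-well plates exposed to compound for 48 hours at five concentrations. GI50 is the concentration that inhibits growth by half.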 Activity calls are given as the source filed them. Cut-off read from the data, not from the text of the source: active = GI50 up to about 1.1 µM and inactive = higher.

Legend:
Experiment in all cases: NCI anticancer screen, dose series, 48 h
ACHN = tested on: ACHN
CAKI-1 = tested on: CAKI-1
CCRF-CEM = tested on: CCRF-CEM
DU-145 = tested on: DU-145
HCC 2998 = tested on: HCC 2998
HCT-15 = tested on: HCT-15
Hs-578T = tested on: Hs-578T
MDA-MB-231 = tested on: MDA-MB-231
MDA-N = tested on: MDA-N
Malme-3M = tested on: Malme-3M
NCI-H23 = tested on: NCI-H23
NCI-H460 = tested on: NCI-H460
RXF 393 = tested on: RXF 393
SK-MEL-5 = tested on: SK-MEL-5
SN12C = tested on: SN12C
T47D = tested on: T47D
HL-60 = tested on: HL-60
SF-539 = tested on: SF-539

Row | SMILES | GI50 (ACHN) | GI50 (CAKI-1) | GI50 (CCRF-CEM) | GI50 (DU-145) | GI50 (HCC 2998) | GI50 (HCT-15) [µM] | GI50 (Hs-578T) | GI50 (MDA-MB-231) | GI50 (MDA-N) | GI50 (Malme-3M) | GI50 (NCI-H23) | GI50 (NCI-H460) | GI50 (RXF 393) | GI50 (SK-MEL-5) | GI50 (SN12C) | GI50 (T47D) | GI50 (HL-60) | GI50 (SF-539)
1 | O=C(O)CC(Cc1ccccc1Cl)C(=O)O (stereo not given) | > 100 µM (inactive) | > 100 µM (inactive) | > 100 µM (inactive) | > 100 µM (inactive) | > 100 µM (inactive) | > 100 | > 100 µM (inactive) | > 100 µM (inactive) | > 100 µM (inactive) | > 100 µM (inactive) | > 100 µM (inactive) | > 100 µM (inactive) | > 100 µM (inactive) | > 100 µM (inactive) | > 100 µM (inactive) | > 100 µM (inactive) |  | 
2 | O=C(NNS(=O)(=O)c1ccccc1)c1cccnc1 | > 100 µM (inactive) | > 100 µM (inactive) | 59.7 µM (inactive) | > 100 µM (inactive) | > 100 µM (inactive) | > 100 | > 100 µM (inactive) | > 100 µM (inactive) | > 100 µM (inactive) | > 100 µM (inactive) | > 100 µM (inactive) | > 100 µM (inactive) | > 100 µM (inactive) | > 100 µM (inactive) | > 100 µM (inactive) | > 100 µM (inactive) | > 100 µM (inactive) | > 100 µM (inactive)
3 | O=C1NC(=S)NC(=O)C1C(c1ccccc1[N+](=O)[O-])C1C(=O)NC(=S)NC1=O.c1ccncc1 | > 100 µM (inactive) | > 100 µM (inactive) | > 100 µM (inactive) | > 100 µM (inactive) |  | > 100 | > 100 µM (inactive) | > 100 µM (inactive) | > 100 µM (inactive) | > 100 µM (inactive) | > 100 µM (inactive) | > 100 µM (inactive) | > 100 µM (inactive) | > 100 µM (inactive) | > 100 µM (inactive) | > 100 µM (inactive) | 26.3 µM (inactive) | 
4 | NC(=O)CCC(CCC(N)=O)(CCC(N)=O)[N+](=O)[O-] | > 100 µM (inactive) | > 100 µM (inactive) | > 10 µM (inactive) | > 100 µM (inactive) |  | > 100 | > 100 µM (inactive) | > 100 µM (inactive) | > 100 µM (inactive) | > 100 µM (inactive) | > 100 µM (inactive) | > 100 µM (inactive) | > 100 µM (inactive) | > 100 µM (inactive) | > 100 µM (inactive) | > 100 µM (inactive) | > 100 µM (inactive) | > 100 µM (inactive)
5 | CC[C@@]12C=CC(=S)N(CCSc3ccccc3)[C@@H]1c1c(n(S(=O)(=O)c3ccc(OC)cc3)c3ccccc13)CC2 |  | > 100 µM (inactive) | > 100 µM (inactive) | > 100 µM (inactive) | > 100 µM (inactive) | > 100 | > 100 µM (inactive) | > 100 µM (inactive) | > 100 µM (inactive) | > 100 µM (inactive) | > 100 µM (inactive) | > 100 µM (inactive) | 16.6 µM (inactive) | > 100 µM (inactive) | > 100 µM (inactive) | > 100 µM (inactive) | > 100 µM (inactive) | > 100 µM (inactive)
6 | Clc1ccc2c(c1)CC1C[N+]3=C(CCCC3)C1=C2 (stereo not given) | > 100 µM (inactive) | > 100 µM (inactive) | 83 µM (inactive) | > 100 µM (inactive) |  | > 100 | > 100 µM (inactive) | 44.8 µM (inactive) | > 100 µM (inactive) | 36.6 µM (inactive) | 69 µM (inactive) | 40.1 µM (inactive) | > 100 µM (inactive) | 50.4 µM (inactive) | > 100 µM (inactive) | 51.3 µM (inactive) | 40 µM (inactive) | 
